Data as given in the supplement of paper PMC13380429.

Legend:
Settings in all cases: 72 h
Calu-3 [1] = assay: relative viability EC50 (midpoint between 100% and the lowest measured viability); higher = less toxic
Vero E6 [2] = assay: as above
HepG2 [3] = assay: as above
U2OS [4] = assay: as above
Caco-2 [5] = assay: as above
Calu-3 [6] = assay: drug sensitivity score (DSS) for viability; higher = more toxic; extreme values may be limits of the assay
Vero E6 [7] = assay: as above
HepG2 [8] = assay: as above
U2OS [9] = assay: as above
Caco-2 [10] = assay: as above
Calu-3 [11] = assay: cell viability relative to DMSO; higher = less toxic
Vero E6 [12] = assay: as above
HepG2 [13] = assay: as above
U2OS [14] = assay: as above
Caco-2 [15] = assay: as above

Compound | relative viability EC50 (Calu-3 [1]) | relative viability EC50 (Vero E6 [2]) | relative viability EC50 (HepG2 [3]) | relative viability EC50 (U2OS [4]) | relative viability EC50 (Caco-2 [5]) | drug sensitivity score (Calu-3 [6]) | drug sensitivity score (Vero E6 [7]) | drug sensitivity score (HepG2 [8]) | drug sensitivity score (U2OS [9]) | drug sensitivity score (Caco-2 [10]) | cell viability (Calu-3 [11]; 1 nM) | cell viability (Calu-3 [11]; 10 nM) | cell viability (Calu-3 [11]; 100 nM) | cell viability (Calu-3 [11]; 1000 nM) | cell viability (Calu-3 [11]; 10000 nM) | cell viability (Vero E6 [12]; 1 nM) | cell viability (Vero E6 [12]; 10 nM) | cell viability (Vero E6 [12]; 100 nM) | cell viability (Vero E6 [12]; 1000 nM) | cell viability (Vero E6 [12]; 10000 nM) | cell viability (HepG2 [13]; 1 nM) | cell viability (HepG2 [13]; 10 nM) | cell viability (HepG2 [13]; 100 nM) | cell viability (HepG2 [13]; 1000 nM) | cell viability (HepG2 [13]; 10000 nM) | cell viability (U2OS [14]; 1 nM) | cell viability (U2OS [14]; 10 nM) | cell viability (U2OS [14]; 100 nM) | cell viability (U2OS [14]; 1000 nM) | cell viability (U2OS [14]; 10000 nM) | cell viability (Caco-2 [15]; 1 nM) | cell viability (Caco-2 [15]; 10 nM) | cell viability (Caco-2 [15]; 100 nM) | cell viability (Caco-2 [15]; 1000 nM) | cell viability (Caco-2 [15]; 10000 nM)
O=P(O)(NCCCl)NCCCl [palifosfamide] | > 10 µM | > 10 µM | > 10 µM | > 10 µM | > 10 µM | 0 | 0 | 0 | 0 | 0 | 91.6% | 101% | 99.4% | 98.8% | 105% | 93.5% | 95.9% | 91.7% | 98.1% | 107% | 100% | 102% | 95.3% | 106% | 108% | 100% | 94% | 102% | 98.9% | 97.2% | 94.4% | 93.7% | 103% | 98.4% | 93.7%
C=C1/C(=C\C=C2/CCC[C@]3(C)[C@@H]([C@H](C)/C=C/[C@@H](O)C4CC4)CC[C@@H]23)C[C@@H](O)C[C@@H]1O [calcipotriol] | > 10 µM | > 10 µM | > 10 µM | > 10 µM | > 10 µM | 0 | 0 | 0 | 0 | 0 | 95.4% | 108% | 102% | 93.7% | 96% | 97.5% | 96.7% | 98.2% | 92.3% | 91.9% | 101% | 88.5% | 95% | 99.6% | 94.6% | 99.5% | 96.9% | 99% | 94.8% | 93.5% | 94.7% | 88.6% | 99.6% | 88.3% | 89.9%
CC(=O)N1CCC(NC(=O)c2ccc(F)cc2)CC1 [FK-962] | > 10 µM | > 10 µM | > 10 µM | > 10 µM | > 10 µM | 0 | 0 | 0 | 0 | 0 | 108% | 98.7% | 101% | 99.5% | 95.8% | 98.1% | 87.7% | 98.3% | 88.5% | 94.3% | 107% | 104% | 134% | 92.6% | 108% | 97.8% | 97.9% | 98.6% | 103% | 94.4% | 101% | 97.4% | 104% | 108% | 114%
Cc1ccccc1NC(=N)Nc1ccccc1C [ditolylguanidine] | > 10 µM | > 10 µM | > 10 µM | > 10 µM | > 10 µM | 0 | 0 | 0 | 0 | 0.2 | 103% | 104% | 95.8% | 103% | 90.4% | 96.4% | 104% | 95.6% | 100% | 95.6% | 100% | 96.1% | 97.7% | 94.3% | 97.9% | 98.8% | 104% | 94.6% | 102% | 94.7% | 96.5% | 100% | 103% | 95.6% | 88.3%
C=C1/C(=C\C=C2/CCC[C@]3(C)[C@@H]([C@H](C)/C=C/C=C/C(O)(CC)CC)CC[C@@H]23)C[C@@H](O)C[C@@H]1O [seocalcitol] | > 10 µM | > 10 µM | > 10 µM | > 10 µM | > 10 µM | 0 | 0 | 0 | 0 | 0 | 107% | 102% | 99.2% | 95.7% | 94.9% | 96% | 93.5% | 88.7% | 96.6% | 96.7% | 104% | 97.3% | 99.3% | 112% | 99.4% | 99.9% | 95.5% | 105% | 96.5% | 89.6% | 98.5% | 87.2% | 97.4% | 98.5% | 97.4%
Nc1ncnc2c1ncn2[C@@H]1O[C@H](COP(=O)(O)OP(=O)(O)OP(=O)(O)OP(=O)(O)OC[C@H]2O[C@@H](n3cnc4c(N)ncnc43)[C@H](O)[C@@H]2O)[C@@H](O)[C@H]1O [diadenosine-tetraphosphate] | > 10 µM | > 10 µM | > 10 µM | > 10 µM | > 10 µM | 0.1 | 0 | 0 | 0 | 0 | 106% | 104% | 94.9% | 89.6% | 92.4% | 99% | 102% | 96.5% | 102% | 97% | 94.6% | 101% | 114% | 102% | 104% | 94.5% | 98.1% | 97.7% | 97.5% | 107% | 99.4% | 97.8% | 99.3% | 102% | 107%
COCCCN1CCC(NC(=O)c2cc(Cl)c(N)c3c2OCC3)CC1 [prucalopride] | > 10 µM | > 10 µM | > 10 µM | > 10 µM | > 10 µM | 0 | 0 | 0 | 0 | 0 | 104% | 97% | 90.1% | 97.6% | 94.9% | 106% | 103% | 105% | 101% | 95% | 96.7% | 102% | 96.5% | 91% | 96.5% | 96.9% | 97.7% | 97.7% | 97.9% | 102% | 102% | 82.8% | 102% | 102% | 101%
